Our source for the Kd values is PubChem BioAssay AID1552 (Sanford-Burnham Center for Chemical Genomics, 2009).

The structures appear in SMILES notation. Calls of active or inactive are those of the source. No rule for the calls is given here. A value given as a limit tells only on which side of the number the result lay.

This test deals with Ubiquitin-conjugating enzyme E2 N (Homo sapiens) (UniProt P61088). Description: NMR detection of UBE2N ligand binding – biophysical, purified protein (AID 1552). Conditions: NMR binding to purified UBE2N.
Chain of Ubiquitin-conjugating enzyme E2 N (Homo sapiens) (P61088 whole entry, looked up): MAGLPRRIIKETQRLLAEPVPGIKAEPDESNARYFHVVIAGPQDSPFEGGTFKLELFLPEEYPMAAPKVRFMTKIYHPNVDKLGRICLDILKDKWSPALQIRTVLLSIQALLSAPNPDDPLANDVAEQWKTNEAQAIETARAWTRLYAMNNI
Take `Cn1ncc2c(=O)n(CC(=O)c3ccccc3)cnc21`: the Kd is > 4 mM (inactive).
As for `Cc1ccccc1C(=O)Nc1cccc(N)c1`, the Kd was > 4 mM (inactive).
To `COC(=O)/C(=C1\OC(=O)C(c2ccccc2)C1=O)c1ccccc1` (stereo not drawn) belongs > 4 mM (inactive); to `c1ccc(-c2nnc3sc(-c4ccncc4)nn23)cc1`, > 4 mM (inactive).
To `O=C(O)Cc1csc(-c2ccccc2)n1` belongs > 4 mM (inactive); to `O=C1CNC(=O)N1Cc1ccc(F)cc1`, > 4 mM (inactive); to `COc1ccccc1NC(=O)c1ccc(C)s1`, > 4 mM (inactive).
In the case of `CCC(C)C(=O)O[C@H]1[C@H](O)C2C(CN3CC(C)CCC3[C@@]2(C)O)C2C[C@]34O[C@]5(O)C(OC(=O)C(C)(O)C(C)O)CC[C@@]3(C)C5C(OC(C)=O)[C@@H](OC(C)=O)C4[C@@]21O` (stereo partly drawn), the Kd was > 4 mM (inactive).
To `CC1(C)C2CC(=O)[C@]3(C)C(CC[C@@]4(C)[C@H](c5ccoc5)OC(=O)C5OC543)[C@@]2(C)[C@@H](O)C[C@H]1O` (stereo partly drawn) belongs > 4 mM (inactive); to `O=c1c(-c2ccc(O)cc2)coc2cc(O)ccc12`, > 4 mM (inactive).
As for `COC(=O)C[C@@H]1C2(C)C(=O)[C@@H](CC3=C4CC(=O)O[C@@H](c5ccoc5)[C@]4(C)CCC32)[C@H](OC(C)=O)C1(C)C` (stereo partly drawn), the Kd was > 4 mM (inactive).
As to `CC(=O)Nc1c(C)n(C)n(-c2ccccc2)c1=O`, the Kd is > 4 mM (inactive).
Turning to `COc1cccc(-c2nn(-c3ccccc3)cc2CO)c1`, the Kd was > 4 mM (inactive).
To `CC(=O)N=c1cccc(NC(C)=O)n1O` belongs > 4 mM (inactive); to `O=C(O)CN(CCCc1ccccc1)CC(=O)O`, > 4 mM (inactive); to `COC(=O)c1oc2ccc(Cl)cc2c1NC(C)=O`, > 4 mM (inactive).
For `O=C(Nc1ccc(N2CCCC2=O)cc1)c1cccc(F)c1` the value was > 4 mM (inactive); for `N[C@@H](Cc1cc(I)c(Oc2cc(I)c(O)c(I)c2)c(I)c1)C(=O)O`, > 4 mM (inactive).
On to `Cc1nccn1CCC(=O)O`, for which the Kd is > 4 mM (inactive).
To `O=C(O)c1ccc(-c2ccccn2)s1` belongs > 4 mM (inactive); to `Oc1ccc([C@H]2Oc3cc(O)cc(O)c3C[C@H]2O)cc1`, > 4 mM (inactive); to `Cc1cc(C)n(/N=C\c2cccs2)c(=O)c1C(N)=O`, > 4 mM (inactive).
To `Nc1c(F)c(F)nc(F)c1F` belongs > 4 mM (inactive).
To `CCNC(CC(=O)Nc1ccc(O)cc1)C(=O)O` (stereo not drawn) belongs > 4 mM (inactive).
For `Nc1ccc(N2CCOCC2)c(Cl)c1`, the Kd is > 4 mM (inactive).
Turning to `COC(=O)C1CSCC1=O` (stereo not drawn), the Kd is > 4 mM (inactive).
On to `Cc1ccc(N2NC(=O)CC2=O)cc1C`, for which the Kd was > 4 mM (inactive).
To `Cc1ccc(S(=O)(=O)CC(N)=O)cc1` belongs > 4 mM (inactive); to `COc1ccc2c(C)cc(=O)oc2c1`, > 4 mM (inactive); to `O=C(O)CN1C(=O)c2ccc(C(=O)O)cc2C1=O`, > 4 mM (inactive).
For `NCc1nnnn1-c1ccccc1` the value was > 4 mM (inactive); for `OC12CC3CC(CC(C3)C1)C2`, > 4 mM (inactive).
To `OCc1ccc(-c2ccccn2)s1` belongs > 4 mM (inactive); to `Cn1c(CO)nc2ccccc21`, > 4 mM (inactive); to `NC(=O)CCn1c(=O)oc2ccccc21`, > 4 mM (inactive).
On to `O=c1[nH]c(NCCO)nnc1Cc1ccccc1`, for which the Kd was > 4 mM (inactive).
As for `c1ccn(Cc2ccncc2)c1`, the Kd is > 4 mM (inactive).
For `COC1=CC(C)[C@@H]2C[C@H]3OC(=O)C[C@H]4C(C)=C(OC)C(=O)C([C@@]34C)[C@@]2(C)C1=O` (stereo partly drawn) the value was > 4 mM (inactive); for `O=C(O)c1ccc2nccnc2c1`, > 4 mM (inactive); for `O=C1C2CC=C(Cl)CC2C(=O)N1c1ccccc1O` (stereo not drawn), > 4 mM (inactive).
For `CSc1ccc(S(=O)(=O)N2CCCC2)cc1` the value was > 4 mM (inactive); for `Cn1c(O)c(/C=C2\C=CC=N2)c(=O)[nH]c1=O`, > 4 mM (inactive).
For `CSc1ccn(CCC(=O)O)c(=O)n1` the value was > 4 mM (inactive); for `Cc1nnc(N2CCN(c3ccccc3)CC2)[nH]c1=O`, > 4 mM (inactive); for `CC(=O)N1CCC(NC2CCCCCC2)CC1`, > 4 mM (inactive).
On to `NC(=S)NC1CCS(=O)(=O)C1` (stereo not drawn), for which the Kd was > 4 mM (inactive).
For the molecule `CCOC(=O)CC1Sc2ccccc2NC1=O` (stereo not drawn), the Kd was > 4 mM (inactive).
Consider `c1ccc(-c2n[nH]c(-c3ccccn3)n2)nc1`, for which the Kd is > 4 mM (inactive).
For `COCC(=O)NC1CC(C)(C)NC(C)(C)C1` the value was > 4 mM (inactive).
In the case of `Cc1ccc(-c2nn3c(C)nnc3s2)cc1N`, the Kd is > 4 mM (inactive).
To `O=C(O)CCN1CCc2ccccc2C1c1ccncc1` (stereo not drawn) belongs > 4 mM (inactive); to `C/C=C/C(=O)Nc1ccc(NC(C)=O)cc1`, > 4 mM (inactive).
To `Cc1ccc(/C=C2/C(=O)N=C(N)N2C)s1` belongs > 4 mM (inactive); to `O=C(O)C1(O)C[C@@H](O)C(O)[C@H](O)C1` (stereo partly drawn), > 4 mM (inactive).
For `c1ccc(CCc2nc(-c3ccccn3)no2)cc1` the value was > 4 mM (inactive); for `NS(=O)(=O)c1ccc(N=C2NC(=O)CS2)cc1`, > 4 mM (inactive).
Take `CC(=O)c1sc(NC(=O)C=C(C)C)nc1C`: the Kd was > 4 mM (inactive).
To `CC1(C)SCC(C(=O)O)N1C=O` (stereo not drawn) belongs > 4 mM (inactive); to `O=C(c1ccccc1)N1CCN(c2ccccc2F)CC1`, > 4 mM (inactive); to `c1ccc(-n2nnnc2Oc2cccc3cccnc23)cc1`, > 4 mM (inactive).
To `CC(=O)Nc1cc(O)cc(O)c1` belongs > 4 mM (inactive); to `Cc1nnc(NCc2ccc3c(c2)OCO3)[nH]c1=O`, > 4 mM (inactive); to `COc1cccc(NC(=O)c2ncn[nH]2)c1`, > 4 mM (inactive).
For `O=S1(=O)C=C(Nc2ccccc2)CC1` the value was > 4 mM (inactive); for `N#Cc1nc(N2CCCCC2)nc(N2CCOCC2)n1`, > 4 mM (inactive); for `COc1ccc2c(c1)OCc1c-2oc2cc(OC)ccc12`, > 4 mM (inactive).
Consider `Cn1cnc2c(Cl)ncnc21`, for which the Kd is > 4 mM (inactive).
To `OCc1csc(-c2cccs2)n1` belongs > 4 mM (inactive); to `CSc1nc2[nH]ncc2c(=O)[nH]1`, > 4 mM (inactive); to `NC(=O)CC[C@H](N)C(=O)O`, > 4 mM (inactive).
To `Cc1sc2nc[nH]c(=S)c2c1C` belongs > 4 mM (inactive); to `O=C1c2ccccc2C(=O)N1CCc1ccccn1`, > 4 mM (inactive); to `Nc1nc(SCc2ccc3c(c2)OCO3)n[nH]1`, > 4 mM (inactive).
With `CN1CCN(c2nc3c(c(=O)[nH]2)CCCC3)CC1`, the Kd is > 4 mM (inactive).
To `Nc1ccc2nsnc2c1` belongs > 4 mM (inactive).
For `Cc1nn2c(=O)c(NC(=O)c3ccccc3)cnc2s1` the value was > 4 mM (inactive); for `NCC1CN(Cc2ccccc2)CCO1` (stereo not drawn), > 4 mM (inactive).
As for `COc1ccccc1NC(C)=O`, the Kd is > 4 mM (inactive).
For `c1cncc(C(N2CCOCC2)N2CCOCC2)c1`, the Kd is > 4 mM (inactive).
For `C=Cc1c(C)c2cc3[nH]c(cc4nc(cc5nc(cc1[nH]2)C(C)=C5CCC(=O)O)C(CCC(=O)O)=C4C)c(C)c3C=C` the value was > 4 mM (inactive).
To `O=C(Nc1ccc(Cl)cn1)c1cnn2cccnc12` belongs > 4 mM (inactive); to `Cc1ccc(-c2cc(C(=O)N3CCCC3)no2)cc1`, > 4 mM (inactive); to `CC1(C)Cc2c(c(-c3ccco3)[nH]c(=O)c2C#N)CO1`, > 4 mM (inactive).
For `COc1ccc2[nH]cc(CCNC(C)=O)c2c1` the value was > 4 mM (inactive); for `CS(=O)(=O)NN=C1CCCCC1`, > 4 mM (inactive).
Take `O=C(NC1=NCCS1)c1ccc(Cl)s1`: the Kd was > 4 mM (inactive).
For `CCNC(=S)NS(=O)(=O)c1ccccc1` the value was > 4 mM (inactive); for `COC(=O)c1cncn1C`, > 4 mM (inactive); for `CN(C)CC(O)C1CCOC(C)(C)C1` (stereo not drawn), > 4 mM (inactive).
For `Fc1ccc2onc(C3CCNCC3)c2c1` the value was > 4 mM (inactive); for `O=C(CSc1nc2ccccc2[nH]1)N1CCCCC1`, > 4 mM (inactive); for `O=C(NC(=O)N1CCOCC1)c1ccccc1`, > 4 mM (inactive).
As for `COc1ccccc1NC(=O)C1CCCCC1`, the Kd is > 4 mM (inactive).
As to `CN1C(=O)CC[C@H]1c1cccnc1`, the Kd is > 4 mM (inactive).
For `O=C(Nc1ccon1)c1cccc(Cl)c1` the value was > 4 mM (inactive); for `O=C(O)CS(=O)(=O)c1ccccc1[N+](=O)[O-]`, > 4 mM (inactive); for `NC(=O)C1CCN(c2nccc(C(F)(F)F)n2)CC1`, > 4 mM (inactive).
To `CC(=O)c1cccc(NC(=O)N2CCc3ccccc3C2)c1` belongs > 4 mM (inactive); to `CC(=O)Nc1ccc(N(C)C(C)=O)cc1`, > 4 mM (inactive).
To `O=C1NC(=O)/C(=C\c2ccco2)S1` belongs > 4 mM (inactive).
Take `Cc1nc(NCc2ccco2)nc2c1C(=O)CC(C)C2` (stereo not drawn): the Kd is > 4 mM (inactive).
To `c1ccc(-n2ncc3c(NCc4ccco4)ncnc32)cc1` belongs > 4 mM (inactive); to `C=C1C([C@]2(C)C(CC(=O)OC)[C@@](C)(COC(C)=O)OC(=O)C[C@@H]2OC(C)=O)[C@@H](OC=O)[C@H](OC(=O)C(OC(C)=O)C(C)CC)[C@@]2(C)[C@H](c3ccoc3)CC(=O)C12O` (stereo partly drawn), > 4 mM (inactive).
